Measured values from ChEMBL document CHEMBL5385866, “Switch type I to type II TRK inhibitors for combating clinical resistance induced by xDFG mutation for cancer therapy” (Eur J Med Chem, 2023).

Experiments:
[1] = biological target: BDNF/NT-3 growth factors receptor (Homo sapiens, UniProt Q16620); test: Inhibition of TRKB (unknown origin) using […] peptide as substrate incubated for 1 hr in presence of ATP by FRET based Z'-lyte assay
[2] = biological target: High affinity nerve growth factor receptor (Homo sapiens, UniProt P04629); test: Inhibition of TRKA (unknown origin) using […] peptide as substrate incubated for 1 hr in presence of ATP by FRET based Z'-lyte assay
[3] = biological target: High affinity nerve growth factor receptor (Homo sapiens, UniProt P04629, G667C); test: Inhibition of TRKA G667C mutant (unknown origin) using […] peptide as substrate incubated for 1 hr in presence of ATP by FRET based Z'-lyte assay
[4] = biological target: NT-3 growth factor receptor (Homo sapiens, UniProt Q16288); test: Inhibition of TRKC (unknown origin) using […] peptide as substrate incubated for 1 hr in presence of ATP by FRET based Z'-lyte assay
BaF3 [5] = test: cells; conditions: Mus musculus, BaF3, 72 h
Description: Antiproliferative activity against mouse BaF3 cells harbouring ETV6-TRKC assessed as inhibition of cell growth incubated for 72 hrs by CCK8 assay

BaF3 [6] = test: cells; conditions: Mus musculus, BaF3, 72 h; remark: listed apart in the source
BaF3 [7] = test: cells; conditions: Mus musculus, BaF3, 72 h; remark: listed apart in the source
Description: Antiproliferative activity against mouse BaF3 cells harbouring CD74-TRKA assessed as inhibition of cell growth incubated for 72 hrs by CCK8 assay

BaF3 [8] = test: cells; conditions: Mus musculus, BaF3, 72 h; remark: listed apart in the source
Description: Antiproliferative activity against mouse BaF3 cells harbouring ETV6-TRKB assessed as inhibition of cell growth incubated for 72 hrs by CCK8 assay

BaF3 [9] = test: Induction of apoptosis in mouse BaF3 cells harboring CD74-TRKA assessed as viable cells at 500 nM incubated 48 hrs by Annexin V-FITC/7-AAD staining based flow cytometric analysis (reference value: 89.30%); assay type: functional; conditions: read-out: Activity
BaF3 [10] = test: Induction of apoptosis in mouse BaF3 cells harboring CD74-TRKA assessed as viable cells at 100 nM incubated 48 hrs by Annexin V-FITC/7-AAD staining based flow cytometric analysis (reference value: 89.30%); assay type: functional; conditions: read-out: Activity
BaF3 [11] = test: Induction of apoptosis in mouse BaF3 cells harboring CD74-TRKA assessed as viable cells at 20 nM incubated 48 hrs by Annexin V-FITC/7-AAD staining based flow cytometric analysis (reference value: 89.30%); assay type: functional; conditions: read-out: Activity
BaF3 [12] = test: Induction of apoptosis in mouse BaF3 cells harboring CD74-TRKA G667C mutant assessed as viable cells at 50 nM incubated 48 hrs by Annexin V-FITC/7-AAD staining based flow cytometric analysis (reference value: 89.60%); assay type: functional; conditions: read-out: Activity
BaF3 [13] = test: Induction of apoptosis in mouse BaF3 cells harboring CD74-TRKA G667C mutant assessed as viable cells at 0.4 nM incubated 48 hrs by Annexin V-FITC/7-AAD staining based flow cytometric analysis (reference value: 89.60%); assay type: functional; conditions: read-out: Activity
BaF3 [14] = test: Induction of apoptosis in mouse BaF3 cells harboring CD74-TRKA assessed as viable cells at 4 nM incubated 48 hrs by Annexin V-FITC/7-AAD staining based flow cytometric analysis (reference value: 89.30%); assay type: functional; conditions: read-out: Activity
[15] = biological target: Proto-oncogene tyrosine-protein kinase receptor Ret (Homo sapiens, UniProt P07949); test: Inhibition of RET (unknown origin)
[16] = biological target: Vascular endothelial growth factor receptor 2 (Homo sapiens, UniProt P35968); test: Inhibition of VEGFR2 (unknown origin)
[17] = biological target: T1, Receptor-type tyrosine-protein kinase FLT3 (Homo sapiens, UniProt P36888); test: Inhibition of FLT3 (unknown origin)
T1 sequence (P36888 whole entry): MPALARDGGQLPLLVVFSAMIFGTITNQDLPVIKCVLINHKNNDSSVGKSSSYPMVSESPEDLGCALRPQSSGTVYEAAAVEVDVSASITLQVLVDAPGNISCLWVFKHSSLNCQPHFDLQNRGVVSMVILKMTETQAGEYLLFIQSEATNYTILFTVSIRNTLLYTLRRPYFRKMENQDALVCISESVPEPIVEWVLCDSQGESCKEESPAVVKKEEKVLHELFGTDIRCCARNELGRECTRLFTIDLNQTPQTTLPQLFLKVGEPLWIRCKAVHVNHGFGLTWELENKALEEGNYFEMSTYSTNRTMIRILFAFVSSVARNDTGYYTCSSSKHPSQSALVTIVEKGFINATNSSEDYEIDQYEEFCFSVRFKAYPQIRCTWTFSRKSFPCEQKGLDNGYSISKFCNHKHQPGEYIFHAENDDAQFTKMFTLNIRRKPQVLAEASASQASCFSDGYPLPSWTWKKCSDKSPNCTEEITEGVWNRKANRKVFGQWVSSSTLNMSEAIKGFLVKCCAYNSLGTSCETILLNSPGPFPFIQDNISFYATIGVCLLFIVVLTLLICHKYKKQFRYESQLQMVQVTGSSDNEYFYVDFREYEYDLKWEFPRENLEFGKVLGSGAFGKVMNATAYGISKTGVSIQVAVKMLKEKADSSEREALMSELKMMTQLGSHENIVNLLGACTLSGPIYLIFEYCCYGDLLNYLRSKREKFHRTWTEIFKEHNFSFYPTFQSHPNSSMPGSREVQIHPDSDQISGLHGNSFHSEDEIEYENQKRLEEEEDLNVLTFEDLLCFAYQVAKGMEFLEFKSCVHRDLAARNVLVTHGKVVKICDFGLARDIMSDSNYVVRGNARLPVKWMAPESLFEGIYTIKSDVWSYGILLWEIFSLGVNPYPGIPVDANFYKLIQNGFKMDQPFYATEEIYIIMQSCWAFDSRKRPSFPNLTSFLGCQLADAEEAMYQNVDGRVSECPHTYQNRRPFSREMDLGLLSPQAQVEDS

BaF3 [18] = test: Induction of apoptosis in mouse BaF3 cells harboring CD74-TRKA G667C mutant assessed as viable cells at 10 nM incubated 48 hrs by Annexin V-FITC/7-AAD staining based flow cytometric analysis (reference value: 89.60%); assay type: functional; conditions: read-out: Activity
BaF3 [19] = test: Induction of apoptosis in mouse BaF3 cells harboring CD74-TRKA G667C mutant assessed as viable cells at 2 nM incubated 48 hrs by Annexin V-FITC/7-AAD staining based flow cytometric analysis (reference value: 89.60%); assay type: functional; conditions: read-out: Activity
BaF3 [20] = test: cells; conditions: Mus musculus, BaF3, 72 h; remark: listed apart in the source
Description: Antiproliferative activity against mouse BaF3 cells harbouring CD74-TRKA G623R mutant assessed as inhibition of cell growth incubated for 72 hrs by CCK8 assay

BaF3 [21] = test: cells; conditions: Mus musculus, BaF3, 72 h; remark: listed apart in the source
Description: Antiproliferative activity against mouse BaF3 cells assessed as inhibition of cell growth incubated for 72 hrs by CCK8 assay

BaF3 [22] = test: cells; conditions: Mus musculus, BaF3, 72 h; remark: listed apart in the source
Description: Antiproliferative activity against mouse BaF3 cells harbouring CD74-TRKA G595R mutant assessed as inhibition of cell growth incubated for 72 hrs by CCK8 assay

Chain of BDNF/NT-3 growth factors receptor (Q16620 whole entry): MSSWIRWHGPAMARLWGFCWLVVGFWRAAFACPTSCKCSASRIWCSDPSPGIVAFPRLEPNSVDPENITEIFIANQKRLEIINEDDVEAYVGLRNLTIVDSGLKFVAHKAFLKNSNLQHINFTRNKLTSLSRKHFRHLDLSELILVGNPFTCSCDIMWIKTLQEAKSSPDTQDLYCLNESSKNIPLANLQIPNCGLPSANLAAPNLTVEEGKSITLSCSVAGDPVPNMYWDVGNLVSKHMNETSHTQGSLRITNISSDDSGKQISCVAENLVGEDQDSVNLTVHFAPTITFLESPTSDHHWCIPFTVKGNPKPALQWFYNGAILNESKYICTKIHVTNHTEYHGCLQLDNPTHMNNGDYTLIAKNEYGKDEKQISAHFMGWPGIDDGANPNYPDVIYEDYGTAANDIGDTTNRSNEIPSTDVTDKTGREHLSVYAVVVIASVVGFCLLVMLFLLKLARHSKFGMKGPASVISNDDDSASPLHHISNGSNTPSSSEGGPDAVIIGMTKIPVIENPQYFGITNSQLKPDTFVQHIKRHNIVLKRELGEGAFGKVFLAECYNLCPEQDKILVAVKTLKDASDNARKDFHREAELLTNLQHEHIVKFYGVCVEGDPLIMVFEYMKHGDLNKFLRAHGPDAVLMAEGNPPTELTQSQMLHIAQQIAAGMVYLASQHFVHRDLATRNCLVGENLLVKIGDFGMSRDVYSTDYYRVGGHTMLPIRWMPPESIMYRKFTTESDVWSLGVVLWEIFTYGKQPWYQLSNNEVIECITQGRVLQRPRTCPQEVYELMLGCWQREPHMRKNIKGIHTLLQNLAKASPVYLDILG
Chain of High affinity nerve growth factor receptor (Homo sapiens, UniProt P04629) (P04629 whole entry): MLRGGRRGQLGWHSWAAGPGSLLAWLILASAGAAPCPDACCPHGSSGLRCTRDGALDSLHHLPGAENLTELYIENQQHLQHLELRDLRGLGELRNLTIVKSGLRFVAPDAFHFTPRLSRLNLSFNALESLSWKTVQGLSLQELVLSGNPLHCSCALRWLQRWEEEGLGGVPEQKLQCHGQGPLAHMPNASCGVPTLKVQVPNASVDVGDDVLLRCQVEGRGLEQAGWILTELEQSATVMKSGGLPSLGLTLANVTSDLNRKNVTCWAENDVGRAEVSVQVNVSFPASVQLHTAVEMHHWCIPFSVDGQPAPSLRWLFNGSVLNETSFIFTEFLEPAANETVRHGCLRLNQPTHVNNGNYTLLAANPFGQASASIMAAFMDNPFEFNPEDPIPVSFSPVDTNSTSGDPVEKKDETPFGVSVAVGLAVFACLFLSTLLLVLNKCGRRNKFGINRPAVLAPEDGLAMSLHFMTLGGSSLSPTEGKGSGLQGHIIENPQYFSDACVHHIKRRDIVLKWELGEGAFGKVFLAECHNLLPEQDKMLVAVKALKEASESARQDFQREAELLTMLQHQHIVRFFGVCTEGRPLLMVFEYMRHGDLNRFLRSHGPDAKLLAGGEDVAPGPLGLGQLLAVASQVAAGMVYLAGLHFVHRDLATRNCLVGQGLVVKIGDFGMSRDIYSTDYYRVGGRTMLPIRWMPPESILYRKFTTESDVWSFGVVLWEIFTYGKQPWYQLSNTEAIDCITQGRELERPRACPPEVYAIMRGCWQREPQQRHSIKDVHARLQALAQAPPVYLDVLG
Chain of NT-3 growth factor receptor (Q16288 whole entry): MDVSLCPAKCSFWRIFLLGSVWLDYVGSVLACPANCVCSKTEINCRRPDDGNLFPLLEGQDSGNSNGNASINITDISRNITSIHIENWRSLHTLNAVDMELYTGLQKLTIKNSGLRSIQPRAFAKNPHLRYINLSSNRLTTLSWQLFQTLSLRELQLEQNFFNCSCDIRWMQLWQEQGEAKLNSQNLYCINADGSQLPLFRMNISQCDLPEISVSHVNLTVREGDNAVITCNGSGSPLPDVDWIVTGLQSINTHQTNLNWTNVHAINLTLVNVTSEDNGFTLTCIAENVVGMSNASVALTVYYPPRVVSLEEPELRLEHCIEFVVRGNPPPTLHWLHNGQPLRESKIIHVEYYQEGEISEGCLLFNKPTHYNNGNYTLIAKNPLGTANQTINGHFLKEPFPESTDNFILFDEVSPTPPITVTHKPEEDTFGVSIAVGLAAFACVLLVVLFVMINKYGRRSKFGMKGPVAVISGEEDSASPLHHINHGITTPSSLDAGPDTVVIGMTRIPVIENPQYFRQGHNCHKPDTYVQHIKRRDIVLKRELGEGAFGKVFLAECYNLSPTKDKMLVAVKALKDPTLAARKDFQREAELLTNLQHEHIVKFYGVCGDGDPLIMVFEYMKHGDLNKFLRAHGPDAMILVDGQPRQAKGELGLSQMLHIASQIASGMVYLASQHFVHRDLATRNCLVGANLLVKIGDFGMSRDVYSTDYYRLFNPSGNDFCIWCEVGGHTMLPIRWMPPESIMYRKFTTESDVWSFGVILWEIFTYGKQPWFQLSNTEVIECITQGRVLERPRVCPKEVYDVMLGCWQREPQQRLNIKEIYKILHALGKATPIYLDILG
Chain of High affinity nerve growth factor receptor (Homo sapiens, UniProt P04629, G667C) (P04629 33-796 G667C limits assumed): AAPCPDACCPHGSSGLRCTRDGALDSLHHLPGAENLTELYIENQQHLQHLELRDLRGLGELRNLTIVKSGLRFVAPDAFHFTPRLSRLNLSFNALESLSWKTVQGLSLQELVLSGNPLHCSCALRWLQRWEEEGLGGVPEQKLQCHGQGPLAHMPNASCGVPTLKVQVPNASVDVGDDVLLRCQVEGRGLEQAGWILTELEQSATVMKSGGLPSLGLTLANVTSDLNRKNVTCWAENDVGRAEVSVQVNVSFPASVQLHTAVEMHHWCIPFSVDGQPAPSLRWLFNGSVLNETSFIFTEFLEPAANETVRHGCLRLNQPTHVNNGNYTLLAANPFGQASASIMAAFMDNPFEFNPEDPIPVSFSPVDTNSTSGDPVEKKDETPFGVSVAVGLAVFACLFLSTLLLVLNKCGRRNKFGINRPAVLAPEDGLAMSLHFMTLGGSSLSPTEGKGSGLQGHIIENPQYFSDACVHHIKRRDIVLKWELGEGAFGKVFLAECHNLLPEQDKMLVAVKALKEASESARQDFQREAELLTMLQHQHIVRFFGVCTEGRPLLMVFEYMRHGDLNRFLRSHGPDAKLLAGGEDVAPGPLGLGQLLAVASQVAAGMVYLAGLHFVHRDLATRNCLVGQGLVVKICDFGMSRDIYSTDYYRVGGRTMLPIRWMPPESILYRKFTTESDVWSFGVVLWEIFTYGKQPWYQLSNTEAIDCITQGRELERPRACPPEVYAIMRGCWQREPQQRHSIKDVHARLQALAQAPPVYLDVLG
Chain of Vascular endothelial growth factor receptor 2 (P35968 whole entry): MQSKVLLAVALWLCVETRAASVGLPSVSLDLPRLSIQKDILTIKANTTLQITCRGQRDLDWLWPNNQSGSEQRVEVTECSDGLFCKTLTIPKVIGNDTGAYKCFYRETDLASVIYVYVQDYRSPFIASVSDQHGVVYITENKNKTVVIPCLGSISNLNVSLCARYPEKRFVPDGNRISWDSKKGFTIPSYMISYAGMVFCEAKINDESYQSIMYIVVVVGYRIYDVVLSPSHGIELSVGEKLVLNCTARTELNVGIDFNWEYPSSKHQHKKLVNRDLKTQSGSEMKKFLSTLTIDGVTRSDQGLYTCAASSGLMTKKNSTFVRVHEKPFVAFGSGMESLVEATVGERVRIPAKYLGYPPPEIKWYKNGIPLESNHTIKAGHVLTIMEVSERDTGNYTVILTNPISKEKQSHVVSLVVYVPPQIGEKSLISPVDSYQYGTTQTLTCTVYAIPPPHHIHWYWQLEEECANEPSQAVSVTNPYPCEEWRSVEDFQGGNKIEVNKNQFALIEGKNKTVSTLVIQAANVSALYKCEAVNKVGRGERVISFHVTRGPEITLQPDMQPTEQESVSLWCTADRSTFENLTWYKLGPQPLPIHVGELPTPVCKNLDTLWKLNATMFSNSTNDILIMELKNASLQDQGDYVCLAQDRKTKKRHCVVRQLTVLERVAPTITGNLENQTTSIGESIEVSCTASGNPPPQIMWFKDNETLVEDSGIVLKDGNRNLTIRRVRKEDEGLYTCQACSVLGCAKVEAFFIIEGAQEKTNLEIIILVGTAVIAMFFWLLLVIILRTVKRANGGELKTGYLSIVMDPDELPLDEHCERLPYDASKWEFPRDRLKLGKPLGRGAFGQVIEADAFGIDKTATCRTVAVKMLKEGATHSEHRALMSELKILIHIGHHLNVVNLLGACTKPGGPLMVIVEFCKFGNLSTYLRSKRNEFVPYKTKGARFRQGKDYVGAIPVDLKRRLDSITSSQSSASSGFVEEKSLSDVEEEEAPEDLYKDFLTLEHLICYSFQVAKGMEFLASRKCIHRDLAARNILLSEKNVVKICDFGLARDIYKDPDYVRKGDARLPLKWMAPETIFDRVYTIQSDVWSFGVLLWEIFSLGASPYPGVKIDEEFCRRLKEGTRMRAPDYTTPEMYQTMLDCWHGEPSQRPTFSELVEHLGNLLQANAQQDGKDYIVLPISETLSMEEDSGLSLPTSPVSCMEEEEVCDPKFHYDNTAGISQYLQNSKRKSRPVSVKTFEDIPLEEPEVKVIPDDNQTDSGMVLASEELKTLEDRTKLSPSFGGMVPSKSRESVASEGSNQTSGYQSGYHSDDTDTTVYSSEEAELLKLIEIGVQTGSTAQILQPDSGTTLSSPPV

CN1CCN(Cc2ccc(NC(=O)[C@@H]3CCN(c4ccc5nccn5n4)C3)cc2C(F)(F)F)CC1
IC50 [1]: > 1000 nM | IC50 [2]: 245 nM | IC50 [3]: 938 nM

CN1CCN(Cc2ccc(NC(=O)[C@@H]3CCN(c4ccc5ncc(-c6cnn(CCO)c6)n5n4)C3)cc2C(F)(F)F)CC1
IC50 [1]: 21.6 nM | IC50 [2]: 8.7 nM | IC50 [3]: 52.5 nM

CN1CCN(Cc2ccc(NC(=O)[C@@H]3CCN(c4ccc5ncc(-c6cccnc6)n5n4)C3)cc2C(F)(F)F)CC1
IC50 [1]: 11.1 nM | IC50 [4]: 8 nM

CN1CCN(Cc2ccc(NC(=O)[C@@H]3CCN(c4ccc5ncc(-c6cn[nH]c6)n5n4)C3)cc2C(F)(F)F)CC1
IC50 (BaF3 [5]): 195 nM | IC50 [1]: 13.8 nM | IC50 (BaF3 [6]): 27.3 nM | IC50 [2]: 5.8 nM | IC50 [3]: 33.8 nM | IC50 [4]: 7.8 nM | IC50 (BaF3 [7]): 296 nM | IC50 (BaF3 [8]): 522 nM

CN1CCN(Cc2cc(NC(=O)[C@H]3CCN(c4ccc5ncc(-c6ccccn6)n5n4)C3)cc(C(F)(F)F)c2)CC1
IC50 (BaF3 [5]): 141 nM | IC50 [1]: 50.8 nM | IC50 (BaF3 [6]): 49.3 nM | IC50 [2]: 35.2 nM | IC50 [3]: 98.1 nM | IC50 [4]: 40.2 nM | IC50 (BaF3 [7]): 261 nM | IC50 (BaF3 [8]): 215 nM

CN1CCN(Cc2ccc(NC(=O)[C@@H]3CCN(c4ccc5ncc(-c6cnn(C7CCOCC7)c6)n5n4)C3)cc2C(F)(F)F)CC1
IC50 [1]: 26.8 nM | IC50 [2]: 13.2 nM | IC50 [3]: 35.5 nM

Cc1cn(-c2cc(NC(=O)[C@@H]3CCN(c4ccc5ncc(-c6ccccn6)n5n4)C3)cc(C(F)(F)F)c2)cn1
IC50 (BaF3 [5]): 15.8 nM | IC50 [1]: 5.9 nM | IC50 (BaF3 [6]): 1.8 nM | IC50 [2]: 13.1 nM | IC50 [3]: 25.2 nM | IC50 [4]: 10.1 nM | IC50 (BaF3 [7]): 29.1 nM | IC50 (BaF3 [8]): 25.3 nM

Cc1conc1NC(=O)N[C@@H]1CCN(c2ccc3ncc(-c4ccccn4)n3n2)C1
IC50 [2]: 68.7 nM | IC50 [3]: 241 nM | IC50 [4]: 36.8 nM

O=C(Nc1ccc(Cl)c(C(F)(F)F)c1)N[C@@H]1CCN(c2ccc3ncc(-c4ccccn4)n3n2)C1
IC50 (BaF3 [5]): 225 nM | IC50 [1]: 81.6 nM | IC50 (BaF3 [6]): 4.4 nM | IC50 [2]: 45.7 nM | IC50 [3]: 15.1 nM | IC50 [4]: 17 nM | IC50 (BaF3 [7]): 695 nM | IC50 (BaF3 [8]): 508 nM

CN1CCN(Cc2ccc(NC(=O)[C@@H]3CCN(c4ccc5ncc(-c6ccccn6)n5n4)C3)cc2C(F)(F)F)CC1
viability at 0.5 µM (BaF3 [9]): 60.8% | viability at 0.1 µM (BaF3 [10]): 78.1% | viability at 0.02 µM (BaF3 [11]): 87.8% | viability at 0.05 µM (BaF3 [12]): 43% | IC50 [2]: 3.3 nM | IC50 [3]: 9.4 nM | viability at 0.0004 µM (BaF3 [13]): 89.1% | viability at 0.004 µM (BaF3 [14]): 59.9% | IC50 [15]: 9.9 nM | IC50 [16]: 71.1 nM | IC50 [4]: 4.3 nM | IC50 [17]: 1.3 nM | viability at 0.01 µM (BaF3 [18]): 87.6% | viability at 0.002 µM (BaF3 [19]): 89.8%

O=C(Nc1cnn2ccc(N3CCC[C@@H]3c3cc(F)ccc3F)nc12)N1CC[C@H](O)C1 [LAROTRECTINIB]
IC50 (BaF3 [5]): 15.4 nM | IC50 (BaF3 [20]): > 1000 nM | IC50 (BaF3 [6]): 284 nM | IC50 (BaF3 [7]): 9.3 nM | IC50 (BaF3 [21]): > 2000 nM | IC50 (BaF3 [8]): 29.7 nM | IC50 (BaF3 [22]): > 1000 nM

CN1CCN(Cc2ccc(NC(=O)[C@@H]3CCN(c4ccc5ncc(-c6ccc(N)nc6)n5n4)C3)cc2C(F)(F)F)CC1
IC50 [1]: 9.6 nM | IC50 [2]: 6 nM | IC50 [3]: 16.7 nM

CN1CCN(Cc2cc(NC(=O)[C@@H]3CCN(c4ccc5ncc(-c6ccccn6)n5n4)C3)cc(C(F)(F)F)c2)CC1
IC50 (BaF3 [5]): 26.4 nM | IC50 [1]: 5.1 nM | IC50 (BaF3 [6]): 9.3 nM | IC50 [2]: 5.8 nM | IC50 [3]: 16.5 nM | IC50 [4]: 8.1 nM | IC50 (BaF3 [7]): 61.5 nM | IC50 (BaF3 [8]): 51.8 nM

C[C@@H]1CCc2ncc(F)cc2[C@H]2CCCN2c2ccn3ncc(c3n2)C(=O)N1 [SELITRECTINIB]
IC50 (BaF3 [5]): 1.2 nM | IC50 (BaF3 [7]): 1.7 nM | IC50 (BaF3 [8]): 5.2 nM
